Source: article PMC5766581, “NF-κB inducing kinase is a therapeutic target for systemic lupus erythematosus” (Nature Communications, 2018)

Tests used:
[1] = system: IL-12p40 production from human monocyte derived DC; assay: CD40L induced IL-12p40 production from human DCs; type: cell-based
Procedure: Human monocytes were enriched from whole blood (Monocyte enrichment RosetteSep, Stem Cell) followed by isolation using Monocyte Isolation Kit II (Miltenyi). Isolated monocytes were cultured (RPMI-10% FBS, penicillin/streptomycin, glutamine) with rhGM-CSF (100 ng/mL) and rhIL-4 (6.5 ng/mL) (R&D Systems) for 5 days with GM-CSF replacement on day 3. On Day 5 immature monocyte derived DCs were monitored for differentiation by flow cytometry ([…], CD83^low CD86^low CD209^+/hi). […] After 24 h plates were centrifuged and supernatants were removed for IL-12p40 cytokine measurement by ELISA (BD Biosciences). Plots and IC50 measurements were generated using GraphPad Prism software.

CDK5/p25 = molecular target: T1, CDK5/p25 (Homo sapiens, UniProt Q00535); assay: SelectScreen kinase panel; type: biochemical
T1 construct: purchased Invitrogen / ThermoFisher SelectScreen

Hyl = molecular target: T2, Hyl (Homo sapiens, UniProt P42679); assay: SelectScreen kinase panel; type: biochemical
T2 construct: purchased Invitrogen / ThermoFisher SelectScreen

NZB/W F1 mice = assay: rAdV-IFNα-accelerated NZB/W F1 lupus model, 4-week biomarker study; type: in vivo; settings: 180 mg/kg BID P.O.
Procedure: Age-matched (NZB x NZW) F1 mice were purchased from Jackson Laboratory. Fourteen to fifteen weeks old female NZB/W F1 mice were injected i.v. with 1.2 × 10^8 rAD5-CMV-IFNα (rAdV-IFNα) particles (Genentech) to accelerate disease[34],[69]. […] In efficacy studies, proteinuria and survival were tracked through day 84. A 4-week PD study was performed to measure cell subsets, serum Ig, chemokines, cytokines, and gene expression.
Kidneys were immersed in 10% neutral buffered formalin at ambient temperature for 24 h, then paraffin-embedded using routine methods. Four micron histologic sections were stained with Periodic acid–Schiff (PAS) for evaluation of glomerulonephritis and hematoxylin and eosin (H&E) for visual evaluation of interstitial inflammation by light microscopy. Scoring by the pathologist was performed in a blinded fashion. Glomerulonephritis severity scoring was on a 4-point semi-quantitative scale: “0” – normal or mild global lesions in <50% of glomeruli, “1”—global lesions in > 50% of glomeruli, <20% of which are severe (defined as >1 segment with <3 patent capillaries), “2”—global lesions in >50% of glomeruli, 20–80% of which are severe, and “3”— >80% of glomeruli with severe global lesions. Chronic pyelitis, cortical periarteritis, and tubulointerstitial nephritis severity was determined by blinded disease scoring. Severity scores for tubulointerstitial nephritis, periarteritis, and pyelitis were all on 4-point semiquantitative scales: “0”—no significant inflammation, “1”—sparse or focal inflammatory infiltrates, “2”—occasional moderately sized inflammatory infiltrates, and “3”—frequent large inflammatory infiltrates. Proteinuria measurements were done by dipstick (Multistix, Bayer Diagnostics). Protein concentration was assigned a proteinuria score with trace = […] = 1, 100 mg/dl = 2, >300 mg/dl = 4, and dead mice = 5.

human B cells = assay: BAFF B cell survival assay (Cell Titer Glo); type: cell-based
Procedure: Human B cells were isolated using Miltenyi Human B cell isolation kit following ficoll separation of buffy coats. […] Mouse B cells were isolated from mouse spleen using Miltenyi mouse B cell isolation kit II. Cells were plated in Co-star 96-well plates at either 50,000 cells/well for the survival assays or at 150,000 cells/well for the proliferation assays. Compounds diluted in DMSO (final DMSO assay concentration = 0.1%) were added to the cells. The cells were incubated with compound for one hour at 37 °C. Stimulus was then added to the plates and survival or proliferation was measured after four days. For the proliferation assays, cells were treated with either Anti-IgM (20 μg/mL) or rhCD40L (10 μg/mL; R&D) or anti-mouse CD40 (100 ng/mL). Proliferation was measured using thymidine incorporation on day four. For the BAFF survival assay, cells were treated with human or mouse rBAFF (R&D Systems) at 10 ng/ml followed by Cell Titer Glo (Promega) to measure survival on day four.

[2] = system: p52 processing in human RPTEC; assay: TWEAK-induced p52 processing western blot in RPTEC; type: cell-based; settings: 1 μM, 4, 8 and 24 h
Procedure: (§1) p52/p100 and β-actin were monitored by western blot as described previously. […] Mouse and human RPTEC cells were stimulated with recombinant mouse or human TWEAK (100 ng/mL, R&D Systems). Primary B cells were isolated by negative selection (Miltenyi) from either mouse spleen or human whole blood. Human primary B cells were stimulated with either rhCD40L (10 μg/mL) or rhBAFF (400 ng/mL) (R&D Systems). Mouse primary B cells were stimulated with either anti-CD40 (10 μg/mL, BD Biosciences) or rmBAFF (400 ng/mL). […] HeLa cells (ATCC) were stimulated for 8 h with anti-LTβR agonist antibody and cytoplasmic and nuclear extracts were generated using kits purchase from Thermo Scientific and approximately […] of each extract was monitored for p52/p100, phospho-RelA, RelA, or β-Actin, Histone H3, or Lamin B1 controls. Uncropped western blots, as required by journal policies, are provided in Supplementary Fig. 13 and 14.

[3] = system: p52 processing in mouse RPTEC; assay: TWEAK-induced p52 processing western blot in RPTEC; type: cell-based; settings: murine RPTEC; 3 μM; 4, 8 and 24 h
Procedure: as §1

C57BL/6 mice = assay: Seven-day in vivo B cell survival model; parameters: species or system mouse

T1 sequence (Q00535 whole entry): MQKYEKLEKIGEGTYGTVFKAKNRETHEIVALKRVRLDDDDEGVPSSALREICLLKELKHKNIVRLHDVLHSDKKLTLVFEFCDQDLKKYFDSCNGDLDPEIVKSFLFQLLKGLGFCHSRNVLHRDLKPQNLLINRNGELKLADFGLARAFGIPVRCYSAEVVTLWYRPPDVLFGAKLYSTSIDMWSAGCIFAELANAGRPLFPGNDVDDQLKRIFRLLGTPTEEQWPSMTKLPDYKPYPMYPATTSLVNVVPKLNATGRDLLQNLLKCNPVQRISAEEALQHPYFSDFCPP
T1 sequence (Q15078 99-307 partner limits assumed): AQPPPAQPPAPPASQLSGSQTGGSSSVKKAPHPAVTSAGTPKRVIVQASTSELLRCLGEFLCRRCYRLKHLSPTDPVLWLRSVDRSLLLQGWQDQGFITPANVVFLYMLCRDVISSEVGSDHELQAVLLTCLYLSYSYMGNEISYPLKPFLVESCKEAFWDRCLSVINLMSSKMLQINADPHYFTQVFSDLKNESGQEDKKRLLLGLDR
T2 sequence (P42679 whole entry): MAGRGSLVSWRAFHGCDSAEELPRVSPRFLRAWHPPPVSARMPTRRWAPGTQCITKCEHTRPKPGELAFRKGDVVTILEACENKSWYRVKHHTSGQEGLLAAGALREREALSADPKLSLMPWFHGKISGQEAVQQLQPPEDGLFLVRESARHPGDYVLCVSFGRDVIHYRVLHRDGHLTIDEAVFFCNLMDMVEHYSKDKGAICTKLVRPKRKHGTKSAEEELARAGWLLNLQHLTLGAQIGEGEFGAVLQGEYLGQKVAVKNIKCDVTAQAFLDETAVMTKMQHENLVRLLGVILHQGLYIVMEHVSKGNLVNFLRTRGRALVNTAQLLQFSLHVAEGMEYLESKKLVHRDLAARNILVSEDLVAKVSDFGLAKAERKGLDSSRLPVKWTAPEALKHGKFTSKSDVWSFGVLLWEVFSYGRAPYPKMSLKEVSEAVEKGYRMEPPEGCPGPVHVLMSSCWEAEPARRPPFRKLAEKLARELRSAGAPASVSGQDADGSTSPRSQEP

COc1cc(C(N)=O)nc(-c2cccc(C#C[C@]3(O)CCN(C)C3=O)c2)c1 [NIK SMI1]
CD40L-induced IL-12p40 production ([1]; dendritic cells): nearly completely inhibited
IC50 ([1]; human monocyte derived DC, rhCD40L, mean ± SD, read-out: CD40-induced IL-12 p40 IC50): 95.8 nM
inhibition at 1 µM (CDK5/p25): 2.5%
inhibition at 1 µM (Hyl): 4.5%
frequency and numbers of splenic B cells, germinal center B cells and plasma cells (NZB/W F1 mice; 4 weeks): decreased
frequency and numbers of splenic T effector memory (TEM) and T follicular helper (TFH) cells (NZB/W F1 mice; 4 weeks): significantly reduced
frequency and numbers of total CD4+ T-cells (NZB/W F1 mice; 4 weeks): did not affect
histopathologic scores of glomerulonephritis (NZB/W F1 mice; 4 weeks): reduced
kidney expression of CCL9, CCL2, CXCL13 and CXCL11 (NZB/W F1 mice; 4 weeks): reduced
serum CXCL16 (NZB/W F1 mice; 4 weeks): significantly reduced
serum TNF and IL-12p40 (NZB/W F1 mice; 4 weeks): reduced
spleen weight or total splenocyte count (NZB/W F1 mice; 4 weeks): did not have a substantial effect
splenic expression of ICOS and IL-21 (NZB/W F1 mice; 4 weeks): reduced
splenic expression of Immunoglobulin J (Igj) (NZB/W F1 mice; 4 weeks): strongly suppressed
suppression of serum anti-histone autoantibodies (NZB/W F1 mice; 4 weeks, vs BR3-mIgG2a): superior to BAFF blockade
terminal exposure vs in vitro IC70 (NZB/W F1 mice; 12 hours after final dose): at or above the in vitro-determined IC70 concentration
IC50 (human B cells; Homo sapiens, B-cell, BAFF induced, mean ± SD): 189 nM
BAFF-driven survival of B cells in vitro (human B cells; human B cells): completely inhibited
TWEAK-induced p52 processing [2]: significantly reduced
TWEAK-induced p52 processing [3]: significantly reduced
splenic cellularity, frequency and absolute numbers of total B2, marginal zone and follicular B cells in the spleen (C57BL/6 mice; 6-400 mg/kg BID oral, 7 days): dose-dependently reduced
reduction of serum IgA levels (C57BL/6 mice; after 1 week of treatment, oral BID): approximately 50%
